Source: patent US10308631B2, “Selective anti-cancer compounds” (NATIONAL UNIVERSITY OF SINGAPORE, priority 2015, dated 2019)

Columns and labels:
Assay type in all cases: cell-based
SNU620 = test: MTT growth inhibition (GI50); details: Homo sapiens, SNU620, gastric cancer, 72 h
Description: (§1) Having shown that Compound 1 and its derivatives are effective against HeLa cervical cancer cells and human fibroblast BJ cell lines, Compound 1 was then tested against a panel of thirty different human cancer cells lines derived from gastric, colon, liver, breast, lung and cervical tumours and five different human normal cell lines, which were normal fibroblast cell lines (BJ normal, IMR90, WI38) and retinal pigmented epithelium cell lines (ARPE-19, hTert-immortalized RPE-1).
(§2) The cell lines detailed in Table 2, below, were cultured in the media shown and treated with Compound 1 at a range of different concentrations (from 0.1 μM to 10 μM) for 72 h in triplicate and a mean concentration value for Compound 1 to achieve 50% growth inhibition (GI50) in each cell line was determined by use of the MTT assay.
(§3) The MTT assay was performed by adding thiazolyl blue tetrazolium bromide (MTT reagent, Invitrogen) at a concentration of 0.5 mg/mL to each cell culture and the resulting mixture incubated for 4 h at 37° C. The medium was then removed, and the blue dye remaining in each well was dissolved in DMSO by mixing with a microplate mixer. The absorbance of each well at 540 nm and 660 nm was measured using a microplate reader (Benchmark plus, BIO-RAD). The optical density (OD) values were calculated by subtracting the absorbance at 660 nm from the absorbance at 540 nm. Mean OD values from control cells containing only DMSO treated wells were set as 100%. The resulting GI50 values (in μM) are set out in Table 2 below.

SNU216 = test: MTT growth inhibition (GI50); details: Homo sapiens, SNU-216, SNU216, gastric cancer, 72 h
Description: as §1, §2, §3

U2OS = test: MTT growth inhibition (GI50); details: Homo sapiens, cancer (others), 72 h
Description: as §1, §2, §3

Huh7 = test: MTT growth inhibition (GI50); details: Homo sapiens, Huh-7, Huh7, liver cancer, 72 h
Description: as §1, §2, §3

SNU1 = test: MTT growth inhibition (GI50); details: Homo sapiens, SNU1, gastric cancer, 72 h
Description: as §1, §2, §3

AGS = test: MTT growth inhibition (GI50); details: Homo sapiens, gastric cancer, 72 h
Description: as §1, §2, §3

ARPE-19 = test: MTT growth inhibition (GI50); details: Homo sapiens, ARPE-19, normal cell line, 72 h
Description: as §1, §2, §3

HCT116 = test: MTT growth inhibition (GI50); details: Homo sapiens, HCT-116, HCT116, colon cancer, 72 h
Description: as §1, §2, §3

SNU1750 = test: MTT growth inhibition (GI50); details: Homo sapiens, SNU1750, gastric cancer, 72 h
Description: as §1, §2, §3

DLD1 = test: MTT growth inhibition (GI50); details: Homo sapiens, DLD-1, DLD1, colon cancer, 72 h
Description: as §1, §2, §3

NUGC4 = test: MTT growth inhibition (GI50); details: Homo sapiens, NUGC-4, NUGC4, gastric cancer, 72 h
Description: as §1, §2, §3

IMR90 = test: MTT growth inhibition (GI50); details: Homo sapiens, IMR-90, IMR90, normal cell line, 72 h
Description: as §1, §2, §3

MKN45 = test: MTT growth inhibition (GI50); details: Homo sapiens, MKN-45, MKN45, gastric cancer, 72 h
Description: as §1, §2, §3

WI38 = test: MTT growth inhibition (GI50); details: Homo sapiens, WI-38, WI38, normal cell line, 72 h
Description: as §1, §2, §3

SNU449 = test: MTT growth inhibition (GI50); details: Homo sapiens, SNU-449, SNU449, liver cancer, 72 h
Description: as §1, §2, §3

NCC59 = test: MTT growth inhibition (GI50); details: Homo sapiens, NCC59, gastric cancer, 72 h
Description: as §1, §2, §3

IST1 = test: MTT growth inhibition (GI50); details: Homo sapiens, IST1, gastric cancer, 72 h
Description: as §1, §2, §3

HT29 = test: MTT growth inhibition (GI50); details: Homo sapiens, HT-29, HT29, colon cancer, 72 h
Description: as §1, §2, §3

NCC24 = test: MTT growth inhibition (GI50); details: Homo sapiens, NCC24, gastric cancer, 72 h
Description: as §1, §2, §3

[1] = system: cancer cell lines (panel of thirty); test: MTT growth inhibition, mean over cancer cell line panel; details: Homo sapiens, 72 h
Description: FIG. 7 is a graphical representation showing that Compound 1 (a131) induces selective cell growth inhibitory effects in a broad spectrum of human cancer cells. A panel of cancer and normal cell lines were treated with Compound 1 (a131) for 72 h and a mean G150 value (the concentration required to achieve 50% growth inhibition) was determined. A Student's t-test indicated a statistically significant difference at p<0.05 (p=0.017) between normal cells and cancer cells treated with Compound 1 (a131). […]
The MTT assay was performed by adding thiazolyl blue tetrazolium bromide (MTT reagent, Invitrogen) at a concentration of 0.5 mg/mL to each cell culture and the resulting mixture incubated for 4 h at 37° C. […] The absorbance of each well at 540 nm and 660 nm was measured using a microplate reader (Benchmark plus, BIO-RAD). The optical density (OD) values were calculated by subtracting the absorbance at 660 nm from the absorbance at 540 nm. […]

N#C/C(=C\c1cccc2cnccc12)c1c[nH]c2ccccc12 [Compound 1, (Z)-2-(1H-indol-3-yl)-3-(isoquinolin-5-yl)acrylonitrile]
GI50 (SNU620): 1 µM | GI50 (SNU216): 1.9 µM | GI50 (U2OS): 1.5 µM | GI50 (Huh7): 1.2 µM | GI50 (SNU1): 0.9 µM | GI50 (AGS): 1.1 µM | GI50 (ARPE-19): > 10 µM | GI50 (HCT116): 1.8 µM | GI50 (SNU1750): 0.7 µM | GI50 (DLD1): 1.2 µM | GI50 (NUGC4): > 10 µM | GI50 (IMR90): 5.8 µM | GI50 (MKN45): 1 µM | GI50 (WI38): 3.4 µM | GI50 (SNU449): 2.3 µM | GI50 (NCC59): 0.9 µM | GI50 (IST1): 2.2 µM | GI50 (HT29): 0.9 µM | GI50 (NCC24): 1.2 µM | GI50 [1]: 1.7 µM
